Experimental data as given in BindingDB's records for doi:10.1016/j.bmcl.2016.03.009 (Toray Industries, 2016).

Assay: Agonist activity at human IP receptor in platelet rich plasma assessed as inhibition of ADP-induced platelet aggregation preincubated for 1 min followed by addition of ADP by aggregometry

| IC50 [nM] | SMILES |
| --- | --- |
| 13 | O=C(O)COc1cccc2c1OCCN2CCN(C(=O)c1ccccc1)c1ccc(Cl)cc1 |
| 20000 | O=C(O)COc1ccc(CCCN(C(=O)c2ccccc2)c2ccc(Cl)cc2)cc1 |
| > 30000 | O=C(O)COc1ccc(CN(C(=O)c2ccccc2)c2ccc(Cl)cc2)cc1 |
| 740 | O=C(O)COc1ccc(CCN(C(=O)c2ccccc2)c2ccc(Cl)cc2)cc1 |
| 900 | COc1ccc(N(CCN2CCC(OCC(=O)O)CC2)C(=O)c2ccccc2)cc1 |
| > 1000 | O=C(O)COC1CCN(CCN(C(=O)c2ccccc2)c2ccc(N3CCCC3)cc2)CC1 |
| 440 | O=C(O)COC1CCN(CCN(C(=O)c2ccccc2)c2ccc(Cl)cc2)CC1 |
| > 1000 | Cc1cc(C)c(N(CCN2CCC(OCC(=O)O)CC2)C(=O)c2ccccc2)c(C)c1 |
| 320 | O=C(O)COC1CCC(=CCN(C(=O)c2ccccc2)c2ccc(Cl)cc2)CC1 (stereo not given) |
| 130 | Cc1ccc(N(CCN2CCC(OCC(=O)O)CC2)C(=O)c2ccccc2)cc1 |
| > 30000 | O=C(O)COc1cccc(CCN(C(=O)c2ccccc2)c2ccc(Cl)cc2)c1 |
| 23000 | O=C(O)COC1CCN(CCN(C(=O)c2ccccc2)c2ccc(Cl)cc2)C1 (stereo not given) |
| 430 | CCc1ccc(N(CCN2CCC(OCC(=O)O)CC2)C(=O)c2ccccc2)cc1 |
| > 1000 | Cc1ccccc1N(CCN1CCC(OCC(=O)O)CC1)C(=O)c1ccccc1 |
| > 1000 | Cc1cccc(N(CCN2CCC(OCC(=O)O)CC2)C(=O)c2ccccc2)c1 |
| > 1000 | CC(C)c1ccc(N(CCN2CCC(OCC(=O)O)CC2)C(=O)c2ccccc2)cc1 |
| > 1000 | Cc1ccc(N(CCN2CCC(OCC(=O)O)CC2)C(=O)c2ccccc2)c(C)c1 |
| 1000 | CCCc1ccc(N(CCN2CCC(OCC(=O)O)CC2)C(=O)c2ccccc2)cc1 |
| > 1000 | CCCCc1ccc(N(CCN2CCC(OCC(=O)O)CC2)C(=O)c2ccccc2)cc1 |
| 3200 | O=C(O)COC1CCN(CCN(C(=O)c2ccccc2)c2ccccc2)CC1 |
